Reference: patent US7223784B2, “Compounds for the modulation of the glycolysis enzyme and/or transaminase complex” (ScheBo® Biotech AG, priority 2002, dated 2007)

Columns and labels:
[1] = target: cytosolic isoenzyme of the GOT (Homo sapiens, UniProt P17174); assay: Effect on activity of GOT isoenzymes in vitro (isoenzymes dissociated by isoelectric focusing), cytosolic isoenzyme; type: biochemical; conditions: FIG. 1b
From the text: (§1) In FIG. 1b is shown the effect of […] (AOA) and hydroxylamine (HA) on the activity of the cytosolic and mitochondrial isoenzyme of the GOT in vitro. The isoenzymes of the GOT were dissociated by an isoelectric focusing. […] The inhibition of the GOT leads to an inhibition of the malate-aspartate shuttle. As a consequence, NAD cannot be recycled, and the glycolysis is inhibited at the stage of the GAPDH.

[2] = target: T1, mitochondrial isoenzyme of the GOT (Homo sapiens, UniProt P00505); assay: Effect on activity of GOT isoenzymes in vitro (isoenzymes dissociated by isoelectric focusing), mitochondrial isoenzyme; type: biochemical; conditions: FIG. 1b
T1 sequence (P00505 30-430): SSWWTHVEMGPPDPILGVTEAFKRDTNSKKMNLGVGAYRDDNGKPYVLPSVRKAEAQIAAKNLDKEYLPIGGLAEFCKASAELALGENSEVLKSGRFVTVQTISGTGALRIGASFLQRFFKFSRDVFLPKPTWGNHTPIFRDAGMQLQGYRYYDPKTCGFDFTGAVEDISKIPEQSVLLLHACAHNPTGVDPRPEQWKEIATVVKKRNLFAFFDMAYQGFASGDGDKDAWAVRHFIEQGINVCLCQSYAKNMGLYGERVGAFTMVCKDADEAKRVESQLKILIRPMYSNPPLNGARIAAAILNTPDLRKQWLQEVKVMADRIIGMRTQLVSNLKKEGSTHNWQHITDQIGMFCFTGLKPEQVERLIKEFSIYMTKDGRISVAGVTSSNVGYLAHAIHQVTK
From the text: as §1

Sequence of cytosolic isoenzyme of the GOT (P17174 whole entry): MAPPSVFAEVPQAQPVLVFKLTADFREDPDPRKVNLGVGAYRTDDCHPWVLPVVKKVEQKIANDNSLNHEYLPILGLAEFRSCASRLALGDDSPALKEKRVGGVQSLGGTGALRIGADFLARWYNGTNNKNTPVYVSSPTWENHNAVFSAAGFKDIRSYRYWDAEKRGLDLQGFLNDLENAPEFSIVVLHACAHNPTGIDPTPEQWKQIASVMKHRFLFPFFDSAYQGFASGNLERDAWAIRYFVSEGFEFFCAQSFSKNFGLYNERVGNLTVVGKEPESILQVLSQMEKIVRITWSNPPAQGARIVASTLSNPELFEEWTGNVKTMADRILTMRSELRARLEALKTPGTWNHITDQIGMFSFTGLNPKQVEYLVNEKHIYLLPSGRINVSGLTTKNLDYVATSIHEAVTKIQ

| Compound | effect on the activity of the cytosolic isoenzyme of the GOT [1] | effect on the activity of the mitochondrial isoenzyme of the GOT [2] |
| --- | --- | --- |
| NOCC(=O)O [aminooxyacetate, (aminooxy)acetic acid] | mainly inhibits the cytosolic isoenzyme |  |
| NO [hydroxylamine] | inhibits both isoenzymes | inhibits both isoenzymes |
